According to the NIST ThermoML archive (doi:10.1021/je200766t):

Details: Liquid, Closed cell (Static) method

OCCCO [propan-1,3-diol]
Details | vapor or sublimation pressure [kPa]
313.2 K | 0.0111
323.26 K | 0.026
333.23 K | 0.0574
343.16 K | 0.12
351.33 K | 0.221
361.61 K | 0.43
362.97 K | 0.462
371.65 K | 0.785
381.7 K | 1.395
391.7 K | 2.376
391.73 K | 2.374
401.64 K | 3.883
411.71 K | 6.212
421.69 K | 9.628
431.74 K | 14.62
441.73 K | 21.63
451.78 K | 31.44
461.85 K | 44.81

OCC(O)CO [glycerol]
Details | vapor or sublimation pressure [kPa]
351.8 K | 0.00583
362.02 K | 0.0129
372.06 K | 0.0258
382.08 K | 0.0544
392.18 K | 0.102
402.16 K | 0.18
412.24 K | 0.315
422.28 K | 0.534
432.45 K | 0.981
452.64 K | 2.747
462.86 K | 4.099
